Measurements reported in BigSolDB 2.1.

`COc1cc([N+](=O)[O-])ccc1N` gave a solubility (mole fraction) (in isopropanol, 278.15 K) of 0.00186, a solubility (mole fraction) (in isopropanol, 283.15 K) of 0.00221 and a solubility (mole fraction) (in isopropanol, 288.15 K) of 0.00265. It also gave a solubility (mole fraction) (in isopropanol, 293.15 K) of 0.00322, a solubility (mole fraction) (in isopropanol, 298.15 K) of 0.00396 and a solubility (mole fraction) (in isopropanol, 303.15 K) of 0.00492. It also gave a solubility (mole fraction) (in isopropanol, 308.15 K) of 0.00595, a solubility (mole fraction) (in isopropanol, 313.15 K) of 0.00719 and a solubility (mole fraction) (in isopropanol, 318.15 K) of 0.00855. It also gave a solubility (mole fraction) (in isopropanol, 323.15 K) of 0.0101, a solubility (mole fraction) (in water, 278.15 K) of 4.03e-06 and a solubility (mole fraction) (in water, 283.15 K) of 5.68e-06. The solubility (mole fraction) (in water, 288.15 K) was 7.36e-06, the solubility (mole fraction) (in water, 293.15 K) was 9.49e-06 and the solubility (mole fraction) (in water, 298.15 K) was 1.27e-05. For the same compound, the solubility (mole fraction) (in water, 303.15 K) was 1.74e-05, the solubility (mole fraction) (in water, 308.15 K) was 2.36e-05 and the solubility (mole fraction) (in water, 313.15 K) was 3.15e-05. It also gave a solubility (mole fraction) (in water, 318.15 K) of 4.23e-05 and a solubility (mole fraction) (in water, 323.15 K) of 5.49e-05.
